According to BindingDB's records for doi:10.1074/jbc.M113.487736 (Universität Duisburg-Essen, 2014):

Columns and labels:
[1] = target: T1, NAD-dependent protein deacetylase sirtuin-2 (Homo sapiens, UniProt Q8IXJ6); assay: Fluorescence-Based Deacetylation Assay; conditions: pH 8; 37 °C
T1 sequence (Q8IXJ6 whole entry): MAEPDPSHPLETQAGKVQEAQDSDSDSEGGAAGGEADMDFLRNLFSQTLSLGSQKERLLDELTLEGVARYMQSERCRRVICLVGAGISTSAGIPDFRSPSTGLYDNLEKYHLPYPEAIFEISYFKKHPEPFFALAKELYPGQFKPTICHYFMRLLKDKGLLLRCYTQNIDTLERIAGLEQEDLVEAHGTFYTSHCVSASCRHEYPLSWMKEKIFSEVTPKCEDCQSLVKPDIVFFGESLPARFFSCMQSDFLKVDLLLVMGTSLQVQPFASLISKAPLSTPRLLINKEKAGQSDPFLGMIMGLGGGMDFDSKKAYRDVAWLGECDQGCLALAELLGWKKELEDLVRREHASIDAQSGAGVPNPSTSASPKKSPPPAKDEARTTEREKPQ
Description: (§1) Deacetylation assays using Boc(Ac)Lys-7-amino-4-methyl-coumarin (MAL; Bachem, Bubendorf, Switzerland) as a substrate were performed in a volume of 20 μl in 384-well low volume plates (Eppendorf) in a reaction buffer containing 25 mM Tris-HCl (pH 8.0), 137 mM NaCl, 1 mM MgCl2, 2.7 mM KCl, 1 mg/ml BSA, and 1mM DTT. Enzymes were added at different concentrations to wells in a volume of 10 μl and were preincubated with inhibitors (volume 1 μl, diluted in dimethyl sulfoxide) or with dimethyl sulfoxide as a control for 10 min at room temperature. Subsequently, 10 μl 2× concentrated substrate solution containing 200 μM MAL and 2 mM NAD+ was added to initiate the reaction, which was incubated at 37 °C for 4 h. This allowed for ~50% deacetylation of MAL. After incubation, 20 μl of trypsin solution (0.5 mg/ml) was added, and the trypsin cleavage reaction was allowed to proceed at 37 °C for 1 h. Fluorescence readings were obtained using a fluorescence reader(GENiosPro TECAN), with the excitation wavelength set to 360 nm and the emission set to 465 nm.

[2] = target: T2, NAD-dependent protein deacetylase sirtuin-1 (Homo sapiens, UniProt Q96EB6); assay: Fluorescence-Based Deacetylation Assay; conditions: pH 8; 37 °C
T2 sequence (Q96EB6 whole entry): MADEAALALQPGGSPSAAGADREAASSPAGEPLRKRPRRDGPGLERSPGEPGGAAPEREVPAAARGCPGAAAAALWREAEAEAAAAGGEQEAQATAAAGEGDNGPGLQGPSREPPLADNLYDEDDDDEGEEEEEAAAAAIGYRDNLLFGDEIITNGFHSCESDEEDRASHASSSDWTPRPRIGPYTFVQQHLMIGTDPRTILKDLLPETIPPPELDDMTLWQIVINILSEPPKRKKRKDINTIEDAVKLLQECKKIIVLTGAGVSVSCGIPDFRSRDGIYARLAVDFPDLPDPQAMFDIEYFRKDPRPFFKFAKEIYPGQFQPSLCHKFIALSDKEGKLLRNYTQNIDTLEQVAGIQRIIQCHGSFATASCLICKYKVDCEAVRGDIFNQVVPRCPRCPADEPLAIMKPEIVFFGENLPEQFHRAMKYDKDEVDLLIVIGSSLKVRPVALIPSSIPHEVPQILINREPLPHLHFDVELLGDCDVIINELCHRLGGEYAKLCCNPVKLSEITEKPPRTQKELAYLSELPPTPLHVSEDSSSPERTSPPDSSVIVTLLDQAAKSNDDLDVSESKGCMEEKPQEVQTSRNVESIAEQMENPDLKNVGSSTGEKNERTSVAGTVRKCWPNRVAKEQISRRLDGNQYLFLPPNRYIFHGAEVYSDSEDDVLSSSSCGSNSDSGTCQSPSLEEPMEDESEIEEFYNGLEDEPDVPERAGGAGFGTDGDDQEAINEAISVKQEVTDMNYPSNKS
Description: as §1

IC50 [1] [µM] | IC50 [2] [µM] | SMILES
3.8 | > 100 | O=C(NCc1cccnc1)c1ccc2c(c1)C1C3CCC(C3)C1C(c1ccccc1)N2 (stereo not given) [AEM2]
18.7 |  | COCCCNC(=O)c1ccc2c(c1)C1C3CCC(C3)C1C(c1ccccc1)N2 (stereo not given) [AEM1 derivative, 1]
18.5 | 118 | NC(=O)c1ccc2c(c1)C1C3CCC(C3)C1C(c1ccccc1)N2 (stereo not given) [AEM1]
